Source: ChEMBL document CHEMBL4842352, “Novel diarylamides and diarylureas with N-substitution dependent activity against medulloblastoma” (Eur J Med Chem, 2021)
Activity calls are given as the source filed them. No cut-off for these calls is given here.

Legend:
Daoy [1] = experiment: Cytotoxicity against human DAOY cells assessed as reduction in cell viability incubated for 72 hrs by MTT assay; format: functional, cell-based
ONS-76 [2] = experiment: Cytotoxicity against human ONS-76 cells assessed as reduction in cell viability incubated for 72 hrs by MTT assay; format: functional, cell-based; details: ONS-76, 72 h
Daoy [3] = experiment: Potency index, ratio of 1-(naphthalen-1-yl)-3-(3,4,5-trimethoxyphenyl)urea IC50 to test compound IC50 for cytotoxicity against human DAOY cells assessed as reduction in cell viability incubated for 72 hrs by MTT assay; format: functional
ONS-76 [4] = experiment: Potency index, ratio of 1-(naphthalen-1-yl)-3-(3,4,5-trimethoxyphenyl)urea IC50 to test compound IC50 for cytotoxicity against human ONS-76 cells assessed as reduction in cell viability incubated for 72 hrs by MTT assay; format: functional
[5] = biological target: Cyclin-dependent kinase 2 (Homo sapiens) (UniProt P24941); experiment: Inhibition of CDK2 (unknown origin) at 100 uM
[6] = biological target: Insulin-like growth factor 1 receptor (Homo sapiens) (UniProt P08069); experiment: Inhibition of IGF-1R (unknown origin) at 100 uM
[7] = biological target: Vascular endothelial growth factor receptor 2 (Homo sapiens) (UniProt P35968); experiment: Inhibition of VEGFR2 (unknown origin) at 100 uM
[8] = biological target: T1, Aurora kinase A (Homo sapiens) (UniProt O14965); experiment: Inhibition of Aurora A (unknown origin) at 100 uM relative to control
T1 sequence (whole entry): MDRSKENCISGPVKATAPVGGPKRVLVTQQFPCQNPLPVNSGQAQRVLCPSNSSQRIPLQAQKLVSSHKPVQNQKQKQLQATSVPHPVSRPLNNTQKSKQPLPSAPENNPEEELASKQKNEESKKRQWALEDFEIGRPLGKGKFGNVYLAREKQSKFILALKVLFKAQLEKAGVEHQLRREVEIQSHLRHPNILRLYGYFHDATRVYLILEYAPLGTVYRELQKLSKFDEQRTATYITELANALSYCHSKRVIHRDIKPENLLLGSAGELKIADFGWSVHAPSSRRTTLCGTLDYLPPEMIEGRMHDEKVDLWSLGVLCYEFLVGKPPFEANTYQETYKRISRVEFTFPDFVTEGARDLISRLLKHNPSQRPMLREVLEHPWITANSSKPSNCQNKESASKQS

Sequence of Vascular endothelial growth factor receptor 2 (Homo sapiens) (P35968 whole entry): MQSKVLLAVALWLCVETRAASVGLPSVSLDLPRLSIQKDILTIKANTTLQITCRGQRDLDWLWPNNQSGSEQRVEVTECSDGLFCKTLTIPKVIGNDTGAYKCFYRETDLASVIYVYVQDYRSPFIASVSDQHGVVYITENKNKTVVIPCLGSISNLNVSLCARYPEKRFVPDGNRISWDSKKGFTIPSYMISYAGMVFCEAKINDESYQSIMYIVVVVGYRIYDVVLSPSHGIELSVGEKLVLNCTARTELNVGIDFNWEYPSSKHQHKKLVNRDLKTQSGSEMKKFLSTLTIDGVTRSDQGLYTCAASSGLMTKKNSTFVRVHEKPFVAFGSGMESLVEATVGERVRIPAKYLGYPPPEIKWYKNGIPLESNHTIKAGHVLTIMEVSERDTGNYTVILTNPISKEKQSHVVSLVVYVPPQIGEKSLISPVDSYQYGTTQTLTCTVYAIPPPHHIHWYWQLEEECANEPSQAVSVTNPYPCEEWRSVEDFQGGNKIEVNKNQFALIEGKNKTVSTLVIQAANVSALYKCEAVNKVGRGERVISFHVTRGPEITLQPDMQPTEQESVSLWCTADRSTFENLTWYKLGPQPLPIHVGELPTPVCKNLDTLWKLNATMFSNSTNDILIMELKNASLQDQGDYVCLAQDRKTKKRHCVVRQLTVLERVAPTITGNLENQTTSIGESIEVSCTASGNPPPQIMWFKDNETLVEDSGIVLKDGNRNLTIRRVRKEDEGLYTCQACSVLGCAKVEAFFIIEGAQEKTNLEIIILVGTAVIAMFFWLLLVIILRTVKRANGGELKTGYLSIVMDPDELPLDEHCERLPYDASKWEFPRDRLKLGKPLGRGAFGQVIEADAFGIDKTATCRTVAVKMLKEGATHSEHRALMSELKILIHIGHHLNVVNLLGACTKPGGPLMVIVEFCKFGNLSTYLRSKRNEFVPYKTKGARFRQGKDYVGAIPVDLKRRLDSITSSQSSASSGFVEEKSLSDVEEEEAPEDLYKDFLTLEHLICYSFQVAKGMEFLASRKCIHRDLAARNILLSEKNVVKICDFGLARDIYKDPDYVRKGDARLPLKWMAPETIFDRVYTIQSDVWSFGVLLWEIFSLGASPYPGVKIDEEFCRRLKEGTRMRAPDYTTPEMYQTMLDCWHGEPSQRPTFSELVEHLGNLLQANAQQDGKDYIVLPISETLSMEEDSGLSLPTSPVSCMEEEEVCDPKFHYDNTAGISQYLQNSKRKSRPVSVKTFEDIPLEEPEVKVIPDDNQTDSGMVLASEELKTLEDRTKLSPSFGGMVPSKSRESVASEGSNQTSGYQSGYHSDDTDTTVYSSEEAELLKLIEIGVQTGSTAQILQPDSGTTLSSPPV
Sequence of Insulin-like growth factor 1 receptor (Homo sapiens) (P08069 31-736 limits assumed): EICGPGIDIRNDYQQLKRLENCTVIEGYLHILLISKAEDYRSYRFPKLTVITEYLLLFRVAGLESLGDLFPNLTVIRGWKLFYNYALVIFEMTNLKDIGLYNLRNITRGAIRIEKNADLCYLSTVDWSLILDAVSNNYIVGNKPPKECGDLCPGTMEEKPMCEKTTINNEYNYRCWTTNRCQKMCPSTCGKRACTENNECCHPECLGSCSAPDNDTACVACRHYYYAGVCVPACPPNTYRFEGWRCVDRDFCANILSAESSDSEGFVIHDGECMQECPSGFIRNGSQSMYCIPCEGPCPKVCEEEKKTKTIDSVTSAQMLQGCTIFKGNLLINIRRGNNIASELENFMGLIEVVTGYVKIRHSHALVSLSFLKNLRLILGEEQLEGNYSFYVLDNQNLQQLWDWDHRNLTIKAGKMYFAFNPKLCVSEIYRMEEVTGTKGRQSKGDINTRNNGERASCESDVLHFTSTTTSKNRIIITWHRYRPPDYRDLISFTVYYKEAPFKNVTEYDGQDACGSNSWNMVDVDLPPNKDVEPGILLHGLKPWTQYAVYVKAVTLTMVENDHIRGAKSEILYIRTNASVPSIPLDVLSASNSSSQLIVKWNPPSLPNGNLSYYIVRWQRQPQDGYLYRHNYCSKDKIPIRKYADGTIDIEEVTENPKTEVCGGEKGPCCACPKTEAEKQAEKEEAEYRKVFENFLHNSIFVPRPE
Sequence of Insulin-like growth factor 1 receptor (Homo sapiens) (P08069 741-1367 limits assumed): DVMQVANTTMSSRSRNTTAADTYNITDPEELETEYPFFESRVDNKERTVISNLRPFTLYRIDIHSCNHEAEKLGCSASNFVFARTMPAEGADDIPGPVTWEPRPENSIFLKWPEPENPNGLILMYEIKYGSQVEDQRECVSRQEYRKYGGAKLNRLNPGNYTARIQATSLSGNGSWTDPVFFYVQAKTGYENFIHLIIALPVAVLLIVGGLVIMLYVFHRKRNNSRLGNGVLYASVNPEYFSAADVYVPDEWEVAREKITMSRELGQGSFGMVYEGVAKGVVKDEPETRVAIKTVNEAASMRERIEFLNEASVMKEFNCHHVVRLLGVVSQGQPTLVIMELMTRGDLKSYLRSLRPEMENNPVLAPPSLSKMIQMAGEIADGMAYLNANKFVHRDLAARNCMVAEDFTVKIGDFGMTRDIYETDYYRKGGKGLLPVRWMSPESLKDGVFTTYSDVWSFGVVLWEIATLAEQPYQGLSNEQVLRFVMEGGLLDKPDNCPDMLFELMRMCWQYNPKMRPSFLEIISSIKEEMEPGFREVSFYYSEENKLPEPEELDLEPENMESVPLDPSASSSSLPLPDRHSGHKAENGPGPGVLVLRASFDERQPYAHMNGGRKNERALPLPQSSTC

Work on `COc1ccc(NC(=O)Nc2cc(OC)c(OC)c(OC)c2)cc1` yielded an IC50 (Daoy [1]) of 14.8 µM and an IC50 (ONS-76 [2]) of 12.9 µM.
`COc1cc(N(C)C(=O)N(C)c2cccc3ccccc23)cc(OC)c1OC` was tested, and the IC50 (Daoy [1]) was no less than 125 µM and the IC50 (ONS-76 [2]) was no less than 125 µM.
`COc1ccc(N(C)C(=O)N(C)c2cc(OC)c(OC)c(OC)c2)cc1` showed an IC50 (Daoy [1]) of no less than 125 µM and an IC50 (ONS-76 [2]) of no less than 125 µM.
With `COc1cc(NC(=O)c2ccccc2)cc(OC)c1OC` the IC50 (Daoy [1]) was no less than 125 µM and the IC50 (ONS-76 [2]) was no less than 125 µM.
In the case of `COc1cc(NC(=O)c2cccc3ccccc23)cc(OC)c1OC`, the IC50 (Daoy [1]) is reported as 48.7 µM and the IC50 (ONS-76 [2]) is reported as 26.8 µM.
`COc1cc(NC(=O)Nc2cccc3c2CCC3)cc(OC)c1OC` was tested, and the IC50 (Daoy [1]) was 0.47 µM, the IC50 (ONS-76 [2]) was no less than 125 µM and the “Ratio IC50” value (Daoy [3]) was 12.4.
With `COc1cc(N(C)C(=O)c2ccc(F)cc2)cc(OC)c1OC` the IC50 (Daoy [1]) was no less than 125 µM and the IC50 (ONS-76 [2]) was no less than 125 µM.
With `COc1cc(NC(=O)Nc2ccc3c(ccn3C)c2)cc(OC)c1OC` the IC50 (Daoy [1]) was 0.16 µM, the IC50 (ONS-76 [2]) was no less than 125 µM and the “Ratio IC50” value (Daoy [3]) was 36.5.
In the case of `COc1cc(NC(=O)Nc2cccc3cc4ccccc4cc23)cc(OC)c1OC`, the IC50 (Daoy [1]) is reported as 1.25 µM, the IC50 (ONS-76 [2]) is reported as 10 µM and the “Ratio IC50” value (Daoy [3]) is reported as 4.7. The “Ratio IC50” value (ONS-76 [4]) was 0.25.
For `COc1cc(NC(=O)Nc2cccc([N+](=O)[O-])c2)cc(OC)c1OC`, the IC50 (Daoy [1]) was 82.5 µM and the IC50 (ONS-76 [2]) was 79.6 µM.
Compound `COc1cc(N(C)C(=O)c2ccccc2)cc(OC)c1OC` has an IC50 (Daoy [1]) of no less than 125 µM and an IC50 (ONS-76 [2]) of no less than 125 µM.
`COc1ccc(C(=O)N(C)c2cc(OC)c(OC)c(OC)c2)cc1` was tested, and the IC50 (Daoy [1]) was no less than 125 µM and the IC50 (ONS-76 [2]) was no less than 125 µM.
In the case of `COc1cc(N(C)C(=O)N(C)c2cccc(F)c2)cc(OC)c1OC`, the IC50 (Daoy [1]) is reported as no less than 125 µM and the IC50 (ONS-76 [2]) is reported as no less than 125 µM.
`COc1cc(NC(=O)c2cccc(F)c2)cc(OC)c1OC` was tested, and the IC50 (Daoy [1]) was no less than 125 µM and the IC50 (ONS-76 [2]) was no less than 125 µM.
In the case of `COc1cc(NC(=O)Nc2c3ccccc3cc3ccccc23)cc(OC)c1OC`, the IC50 (Daoy [1]) is reported as no less than 125 µM, the IC50 (ONS-76 [2]) is reported as 10 µM and the “Ratio IC50” value (ONS-76 [4]) is reported as 0.25.
`COc1cc(NC(=O)Nc2cccc3cc(O)ccc23)cc(OC)c1OC` gave an IC50 (Daoy [1]) of no less than 125 µM and an IC50 (ONS-76 [2]) of no less than 125 µM.
For `COc1ccc(C(=O)Nc2cc(OC)c(OC)c(OC)c2)cc1`, the IC50 (Daoy [1]) was no less than 125 µM and the IC50 (ONS-76 [2]) was no less than 125 µM.
`COc1cc(NC(=O)Nc2cccc(F)c2)cc(OC)c1OC` gave an IC50 (Daoy [1]) of 111 µM and an IC50 (ONS-76 [2]) of 65.5 µM.
In the case of `COc1cc(N(C)C(=O)c2ccc([N+](=O)[O-])cc2)cc(OC)c1OC`, the IC50 (Daoy [1]) is reported as no less than 125 µM and the IC50 (ONS-76 [2]) is reported as no less than 125 µM.
`COc1cc(NC(=O)Nc2cccc3cc[nH]c23)cc(OC)c1OC` gave an IC50 (Daoy [1]) of no less than 125 µM and an IC50 (ONS-76 [2]) of no less than 125 µM.
`COc1cc(N(C)C(=O)c2cccc3ccccc23)cc(OC)c1OC` gave an IC50 (Daoy [1]) of no less than 125 µM and an IC50 (ONS-76 [2]) of 65.7 µM.
`COc1cc(NC(=O)Nc2ccc(O)c3ccccc23)cc(OC)c1OC` was tested, and the IC50 (Daoy [1]) was 0.1 µM, the IC50 (ONS-76 [2]) was 2.5 µM and the “Ratio IC50” value (Daoy [3]) was 58.4. For the same compound, the “Ratio IC50” value (ONS-76 [4]) was 0.98, the inhibition [5] was “inactive” and the inhibition [6] was “inactive”. The inhibition [7] was “inactive” and the inhibition [8] was 30%.
`COc1cc(NC(=O)Nc2cccc3ccccc23)cc(OC)c1OC` gave an IC50 (Daoy [1]) of 5.84 µM and an IC50 (ONS-76 [2]) of 2.45 µM.
In the case of `COc1cc(NC(=O)Nc2cccc3ncccc23)cc(OC)c1OC`, the IC50 (Daoy [1]) is reported as 4 µM, the IC50 (ONS-76 [2]) is reported as no less than 125 µM and the “Ratio IC50” value (Daoy [3]) is reported as 1.5.
For `COc1cc(NC(=O)c2ccc(F)cc2)cc(OC)c1OC`, the IC50 (Daoy [1]) was no less than 125 µM and the IC50 (ONS-76 [2]) was no less than 125 µM.
Compound `COc1cc(N(C)C(=O)c2cccc([N+](=O)[O-])c2)cc(OC)c1OC` has an IC50 (Daoy [1]) of no less than 125 µM and an IC50 (ONS-76 [2]) of no less than 125 µM.
In the case of `COc1cc(N(C)C(=O)N(C)c2ccc([N+](=O)[O-])cc2)cc(OC)c1OC`, the IC50 (Daoy [1]) is reported as no less than 125 µM and the IC50 (ONS-76 [2]) is reported as no less than 125 µM.
`COc1cc(N(C)C(=O)c2cccc(F)c2)cc(OC)c1OC` showed an IC50 (Daoy [1]) of no less than 125 µM and an IC50 (ONS-76 [2]) of no less than 125 µM.
In the case of `COc1cc(NC(=O)c2cccc([N+](=O)[O-])c2)cc(OC)c1OC`, the IC50 (Daoy [1]) is reported as no less than 125 µM and the IC50 (ONS-76 [2]) is reported as no less than 125 µM.
In the case of `COc1cc(NC(=O)Nc2ccc(F)cc2)cc(OC)c1OC`, the IC50 (Daoy [1]) is reported as 104 µM and the IC50 (ONS-76 [2]) is reported as 63.2 µM.
Compound `COc1cc(N(C)C(=O)N(C)c2ccc(F)cc2)cc(OC)c1OC` has an IC50 (Daoy [1]) of no less than 125 µM and an IC50 (ONS-76 [2]) of no less than 125 µM.
`COc1cc(NC(=O)Nc2ccc([N+](=O)[O-])cc2)cc(OC)c1OC` showed an IC50 (Daoy [1]) of 70.8 µM and an IC50 (ONS-76 [2]) of 35 µM.
`COc1cc(NC(=O)c2ccc([N+](=O)[O-])cc2)cc(OC)c1OC` showed an IC50 (Daoy [1]) of 52.9 µM and an IC50 (ONS-76 [2]) of no less than 125 µM.
`COc1cc(N(C)C(=O)N(C)c2cccc([N+](=O)[O-])c2)cc(OC)c1OC` was tested, and the IC50 (Daoy [1]) was no less than 125 µM and the IC50 (ONS-76 [2]) was no less than 125 µM.
